Results reported in PMC7896091, “Synthesis of novel phytol-derived γ-butyrolactones and evaluation of their biological activity” (Scientific Reports, 2021).

Experiments:
[1] = tested on: LoVo/DX cells; experiment: Antiproliferative activity, SRB assay, doxorubicin resistant subline; assay type: cell-based, human; details: for IC50: Homo sapiens, LoVo/DX, 72 h exposure, SRB, mean ± SD, n.a = no activity in concentration of 5, 25, 125, 625 μM
Method: Cell lines were cultured according to the protocol described before. […] All culture media were supplemented with 2 mM L-glutamine (Sigma-Aldrich, Germany), 100 units/mL penicillin, and 100 µg/mL streptomycin (both from Polfa Tarchomin S.A., Poland). All cell lines were grown at 37 °C with 5% CO2 humidified atmosphere. The solutions of the compounds (50 mM) were prepared by dissolving the substances in DMSO (Sigma Aldrich, Germany). […] The in vitro cytotoxic effect of all agents was examined using the MTT (MV4-11) or SRB assay, described previously. […] Each compound in each concentration was tested in triplicate in a single experiment, which was repeated 3–5 times.

[2] = tested on: Myzus persicae; experiment: EPG monitoring of aphid probing and feeding (no-choice test); assay type: in vivo; details: 8-h EPG; for Mean duration of probing (C + G + E) / Number of probes / Total duration of pathway (C) / Total duration of phloem phase (E) / Total duration of probing (C + G + E): 0.1% solution, n = 12; for Mean duration of probing (C + G + E) / Number of probes / Total duration of pathway (C) / Total duration of phloem phase (E) / Total duration of probing (C + G + E) / Number of probes before first phloem phase / Time from first probe to first phloem phase / Duration of first phloem phase / Total duration of phloem salivation E1 / Total duration of phloem sap ingestion E2 / Number of probes < 3 min: mean ± SE; for Number of probes before first phloem phase / Time from first probe to first phloem phase: activities in non-phloem tissues; for Number of probes before first phloem phase / Time from first probe to first phloem phase / Duration of first phloem phase / Total duration of phloem salivation E1 / Total duration of phloem sap ingestion E2 / Number of probes < 3 min: n = 10-12; for Duration of first phloem phase / Total duration of phloem salivation E1 / Total duration of phloem sap ingestion E2: activities in sieve elements; for Number of probes < 3 min: before first phloem phase; for Proportion of salivation in phloem phase: (duration of E1 / duration of E1 + E2)*100; for Proportion of phloem phase in total probing: index = duration of phloem phase E / duration of probing C + G + E
Method: The peach potato aphids Myzus persicae (Sulzer) and the Chinese cabbage Brassica rapa subsp. pekinensis (Lour.) Hanelt were reared in laboratory at 20 °C, 65% r.h., and L16:8D photoperiod. One to seven days old apterous females of M. persicae and 3-week old plants with 4–5 fully developed leaves were used for experiments. M. persicae were obtained from the laboratory culture maintained at the Department of Botany and Ecology for many generations since 2000. All experiments were carried out under the same conditions of temperature, relative humidity, and photoperiod. The bioassays were started at 10–11.a.m. Each compound was dissolved in 70% ethanol to obtain the recommended 0.1% solution[40]. All compounds were applied on the adaxial and abaxial leaf surfaces by immersing a leaf in the ethanolic solution of a given compound for 30 s.[20]. Control leaves of similar size were immersed in 70% ethanol that was used as a solvent for the studied compounds. Experiments were performed 1 h after the compounds application to allow the evaporation of the solvent. Every plant and aphid were used only once.
Aphid probing and the phloem sap uptake by M. persicae was monitored using the technique of electronic registration of aphid probing in plant tissues, known as EPG (= Electrical Penetration Graph), that is frequently employed in insect–plant relationship studies considering insects with sucking-piercing mouthparts[42]–[44]. In this experimental set-up, aphid and plant are connected to electrodes and thus made parts of an electric circuit, which is completed when the aphid inserts its stylets into the plant. Weak voltage is supplied in the circuit, and all changing electric properties are recorded as EPG waveforms that can be correlated with aphid activities and stylet position in plant tissues[45],[46]. The parameters describing aphid behaviour during probing and feeding, such as total time of probing, proportion of phloem patterns E1 and E2, number of probes, etc., are good indicators of plant suitability or interference of probing by chemical or physical factors in individual plant tissues[44]–[46]. In the present study, aphids were attached to a golden wire electrode with conductive silver paint (epgsystems. eu) and starved for 1 h prior to the experiment. Probing behaviour of 12 apterous females/studied compound and control was monitored for 8 h continuously with Giga-4 and Giga-8 DC EPG with 1 GΩ of input resistance recording equipment (EPG Systems, Wageningen, The Netherlands). Each aphid was given access to a freshly prepared plant and each aphid/plant combination was used only once. Various behavioural phases were labelled manually using the Stylet + software (www.epgsystems.eu). The following aphid behaviours were distinguished: no penetration (waveform 'np' – aphid stylets outside the plant), pathway phase—penetration of non-phloem tissues (waveforms 'ABC'), phloem phase (salivation into sieve elements, waveform ‘E1’ and ingestion of phloem sap, waveform ‘E2’), and xylem phase (ingestion of xylem sap, waveform 'G'). Waveform ‘G’ occurred rarely irrespective of the treatment. Therefore, in all calculations the xylem phase was added to the pathway phase and termed as probing in non-phloem tissues. The E1/E2 transition patterns were included in E2. Waveform patterns that were not terminated before the end of the experimental period (8 h) were not excluded from the calculations. The parameters derived from EPG recordings were analyzed according to their frequency and duration in configuration related to activities in peripheral and vascular tissues.
All statistical calculations related to data of the no-choice test were performed using StatSoft, Inc. (2014) STATISTICA (data analysis software system), version 12, www.statsoft.com. […]

[3] = tested on: MV4-11 cells; experiment: Antiproliferative activity, MTT assay; assay type: cell-based, human
Method: Human biphenotypic B myelomonocytic leukemia MV4-11, human colon cancer LoVo cell line and normal mouse fibroblast BALB/3T3 cells were obtained from American Type Culture Collection (Rockville, Maryland, USA), human lung carcinoma A549 cells were obtained from European Collection of Authenticated Cell Cultures (UK). All the cell lines are being maintained at the Hirszfeld Institute of Immunology and Experimental Therapy, PAS, Wroclaw, Poland and were cultured according the procedure described before.
Cell lines were cultured according to the protocol described before. MV4-11 cells were cultured in RPMI 1640 medium (Gibco, UK) with 1.0 mM sodium pyruvate, and 10% fetal bovine serum (FBS) (all from Sigma-Aldrich, Germany). A549, LoVo and LoVo/DX cells were cultured in RPMI 1640 + Opti-MEM (1:1) (both from Gibco, UK) supplemented with 5% fetal bovine serum, 1.0 mM sodium pyruvate (LoVo and LoVo/DX cells) (all from Sigma Aldrich Germany) and 0.1 μg/mL doxorubicin chloride (Accord) (only LoVo/DX cells). BALB/3T3 cells in Dulbecco medium (IIET, Poland) supplemented with 10% fetal bovine serum (Sigma-Aldrich, Germany). All culture media were supplemented with 2 mM L-glutamine (Sigma-Aldrich, Germany), 100 units/mL penicillin, and 100 µg/mL streptomycin (both from Polfa Tarchomin S.A., Poland). All cell lines were grown at 37 °C with 5% CO2 humidified atmosphere.
The solutions of the compounds (50 mM) were prepared by dissolving the substances in DMSO (Sigma Aldrich, Germany). Then the tested compounds were diluted in culture medium to reach the final concentrations of 625, 125, 25 and 5 μM. Before adding of the tested compounds (24 h prior), the cells were plated in 96-well plates (Sarstedt, Germany) at a density of 1 × 10^4 or 0.5 × 10^4 (A549) cells per well. The assay was performed after 72 h of exposure to 625, 125, 25 and 5 μM of the tested agents. The in vitro cytotoxic effect of all agents was examined using the MTT (MV4-11) or SRB assay, described previously. The results were calculated as an IC50 (inhibitory concentration 50%) the concentration of tested agent, which is cytotoxic for 50% of the cancer cells. Each compound in each concentration was tested in triplicate in a single experiment, which was repeated 3–5 times.

CC(C)CCCC(C)CCCC(C)CCC[C@]1(C)CC(=O)O[C@H]1CCl (stereo in doubt) [compound 7, cis-5-chloromethyl-4-methyl-4-(4′,8′,12′-trimethyltridecyl)dihydrofuran-2-one]
IC50 [1]: 237 ± 52.9 µM | Mean duration of probing (C + G + E) [2]: 1.0 ± 0.4 h | Number of probes [2]: 18.7 ± 4.6 | Total duration of pathway (C) [2]: 2.5 ± 0.5 h | Total duration of phloem phase (E) [2]: 4.4 ± 0.8 h | Total duration of probing (C + G + E) [2]: 7.1 ± 0.5 h | Number of probes before first phloem phase [2]: 15.6 ± 4.7 | Time from first probe to first phloem phase [2]: 3.3 ± 0.8 h | Duration of first phloem phase [2]: 3.6 ± 0.8 h | Total duration of phloem salivation E1 [2]: 1.2 ± 0.6 min | Total duration of phloem sap ingestion E2 [2]: 4.4 ± 0.8 h | Number of probes < 3 min [2]: 9.6 ± 3.6 | Proportion of salivation in phloem phase [2]: 0.4% | Proportion of phloem phase in total probing [2]: 56.9% | IC50 ([3]; Homo sapiens, MV4-11, 72 h exposure, MTT, mean ± SD, n.a = no activity in concentration of 5, 25, 125, 625 μM): 110 ± 41.6 µM

C=CC(C)(CCCC(C)CCCC(C)CCCC(C)C)CC(=O)O (stereo not shown) [compound 3, 3,7,11,15-tetramethyl-3-vinylhexadecanoic acid]
IC50 [1]: 55 ± 1.5 µM | Selectivity index SI, LoVo/DX ([1]; SI = IC50 BALB/3T3 / IC50 LoVo/DX): 2.64 | Mean duration of probing (C + G + E) [2]: 1.6 ± 0.7 h | Number of probes [2]: 25.3 ± 6.7 | Total duration of pathway (C) [2]: 2.9 ± 0.5 h | Total duration of phloem phase (E) [2]: 4.1 ± 0.8 h | Total duration of probing (C + G + E) [2]: 7.2 ± 0.2 h | Number of probes before first phloem phase [2]: 15.7 ± 5.9 | Time from first probe to first phloem phase [2]: 2.0 ± 0.5 h | Duration of first phloem phase [2]: 3.3 ± 0.9 h | Total duration of phloem salivation E1 [2]: 9.0 ± 6.0 min | Total duration of phloem sap ingestion E2 [2]: 3.9 ± 0.8 h | Number of probes < 3 min [2]: 10.9 ± 4.4 | Proportion of salivation in phloem phase [2]: 8.4% | Proportion of phloem phase in total probing [2]: 52.6% | Selectivity index SI, MV4-11 ([3]; SI = IC50 BALB/3T3 / IC50 MV4-11): 3.69
